Data published in patent US9133187B2, “Serine/threonine kinase inhibitors” (ARRAY BIOPHARMA INC., priority 2011, dated 2015).
Where a name gives a salt, the structure may show the parent alone.

Tests used:
[1] = target: human ERK-2 (Mitogen Activated Kinase 1) (Homo sapiens (Human), UniProt P28482); assay: ERK-2 Enzymatic Assay; assay type: biochemical; details: 5 nM ERK-2, 25 μM ATP, Omnia peptide S/T17; read-out: ERK Inhibition IC50
Description: Compounds were tested in an enzymatic assay using human ERK-2 (Mitogen Activated Kinase 1), recombinantly expressed as an n-terminal 6-His fusion protein in E. coli and corresponding to aa 8-360. The substrate used was the fluorescent Omnia peptide S/T17 (Invitrogen of Carlsbad, Calif.; Cat. KNZ1171C). Test compounds were diluted in DMSO in 3-fold serial dilutions at 100× final concentrations. […] The assay was run at ambient temperature in a white 384-well polypropylene plate (Nunc, Inc of Naperville, Ill.; Cat. 267462) collecting data every 50 seconds for approximately 30 minutes on an Envision plate reader (PerkinElmer, Inc. of Waltham, Mass.); Excitation 340 nm/Emission 495 nm. The data collected from each well was fit to a straight line and the resulting rates were used to calculate percent of control. Percent of control was plotted against compound concentration and IC50 values were determined using a four-parameter fit.

[2] = system: PMA-stimulated P90RSK(Ser380) phosphorylation in HepG2 cells; assay: Cellular P90RSK(Ser380) Phosphorylation Assay; assay type: cell-based; details: Homo sapiens, 1.5 h compound incubation, PMA stimulation, pP90RSK(Ser380) normalized to GAPDH, read-out: Cell Assay IC50
Description: Inhibition of PMA-stimulated P90RSK(Ser380) phosphorylation was determined by the following in vitro cellular mechanistic assay, which comprises incubating cells with a compound for 1.5 hours and quantifying fluorescent pP90RSK(Ser380) signal on fixed cells and normalizing to GAPDH signal.
Materials and Methods: HepG2 cells were obtained from ATCC and grown in DMEM supplemented with 10% fetal bovine serum. Cells were plated in 96-well plates at 35,000 cells/well and allowed to attach overnight at 37° C./5% CO2. Diluted compounds were then added at a final concentration of 0.5% DMSO. After 1.5 hour compound incubation, cells were stimulated with the addition of PMA (phorbol 12-myristate 13-acetate) at a final concentration of 100 ng/mL; the PMA stimulation was a 30-minute incubation at 37° C./5% CO2. After the 30-minute PMA stimulation, cells were washed with PBS and fixed in 3.7% formaldehyde in PBS at room temperature for 15-20 minutes. This was followed by another wash in PBS and then permeabilization in 100% MeOH at room temperature for 10-15 minutes. Following the permeabilization incubation, cells were washed in PBS/0.05% Tween-20, followed by a block in Odyssey blocking buffer (LI-COR Biosciences) for at least 1 hour. Antibodies to phosphorylated P90RSK(Ser380) (Cell Signaling #9335, rabbit monoclonal) and GAPDH (Fitzgerald 10R-G109a, mouse monoclonal) were added to the cells and incubated overnight at 4° C. pP90RSK(Ser380) antibody was used at a 1:250 dilution; GAPDH was used at a 1:10,000 dilution. After washing with PBS/0.05% Tween-20, the cells were incubated with fluorescently-labeled secondary antibodies (Anti-rabbit-Alexa Flour680, Invitrogen Cat#A21109; Anti-mouse-IRDye800CW, Rockland Inc. Cat#610-131-121) for 1 hour. Both secondary antibodies were used at a 1:1000 dilution. Cells were then washed and analyzed for fluorescence at both wavelengths using the Odyssey Infrared Imaging System (LI-COR Biosciences). Phosphorylated P90RSK(Ser380) signal was normalized to GAPDH signal. Representative date is in TABLE III (infra).

Sequence of human ERK-2 (Mitogen Activated Kinase 1) (P28482 8-360): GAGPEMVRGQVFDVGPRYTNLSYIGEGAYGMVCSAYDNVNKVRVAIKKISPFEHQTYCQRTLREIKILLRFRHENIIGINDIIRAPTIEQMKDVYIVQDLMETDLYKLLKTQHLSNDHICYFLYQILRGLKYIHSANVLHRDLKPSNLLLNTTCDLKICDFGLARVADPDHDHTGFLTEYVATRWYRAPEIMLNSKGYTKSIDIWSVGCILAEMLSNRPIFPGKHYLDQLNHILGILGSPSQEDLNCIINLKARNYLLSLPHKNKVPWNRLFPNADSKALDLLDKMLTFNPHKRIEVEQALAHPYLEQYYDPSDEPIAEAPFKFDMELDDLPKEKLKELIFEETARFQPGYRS

IC50 [1] [nM]	SMILES	IC50 [2] [nM]
3.3	CC(CF)Nc1ncc2c(n1)CN(C(=O)N[C@H](CO)c1ccc(Cl)c(Cl)c1)CC2 (stereo partly drawn) [Compound I-60, N—((S)-1-(3,4-dichlorophenyl)-2-hydroxyethyl)-2-(1-fluoropropan-2-ylamino)-5,6-dihydropyrido[3,4-d]pyrimidine-7(8H)-carboxamide]	100
2.9	CC(C)Nc1ncc2c(n1)CN(C(=O)N[C@@H](c1ccc(Cl)c(Cl)c1)[C@H]1CCCN1C)CC2 [Compound I-61, N—((S)-(3,4-dichlorophenyl)((R)-1-methylpyrrolidin-2-yl)methyl)-2-(isopropylamino)-5,6-dihydropyrido[3,4-d]pyrimidine-7(8H)-carboxamide]	93
2.4	CC(C)Nc1ncc2c(n1)CN(C(=O)N[C@@H](c1ccc(Cl)c(Cl)c1)[C@H](O)CO)CC2 [Compound I-62, N-((1S,2S)-1-(3,4-dichlorophenyl)-2,3-dihydroxypropyl)-2-(isopropylamino)-5,6-dihydropyrido[3,4-d]pyrimidine-7(8H)-carboxamide]	109
4.1	CNC[C@@H](NC(=O)N1CCc2cnc(NC(C)C)nc2C1)c1ccc(C(F)(F)F)c(F)c1 [Compound I-66, (S)—N-(1-(3-fluoro-4-(trifluoromethyl)phenyl)-2-(methylamino)ethyl)-2-(isopropylamino)-5,6-dihydropyrido[3,4-d]pyrimidine-7(8H)-carboxamide hydrochloride]	132
9.8	COC[C@@H](NC(=O)N1CCc2cnc(NCCO)nc2C1)c1ccc(Cl)c(Cl)c1 [Compound I-73]	241
5.6	C[C@@H](NC(=O)N1CCc2cnc(NC(CO)CO)nc2C1)c1ccc(Cl)c(Cl)c1 [Compound I-75, (R)—N-(1-(3,4-dichlorophenyl)ethyl)-2-(1,3-dihydroxypropan-2-ylamino)-5,6-dihydropyrido[3,4-d]pyrimidine-7(8H)-carboxamide]	314
113	C[C@@H](NC(=O)N1CCc2cnc(NC3CCN(C)CC3)nc2C1)c1ccc(Cl)c(Cl)c1 [Compound I-83, (R)—N-(1-(3,4-dichlorophenyl)ethyl)-2-(1-methylpiperidin-4-ylamino)-5,6-dihydropyrido[3,4-d]pyrimidine-7(8H)-carboxamide]	2500
2.1	C[C@@H](CO)Nc1ncc2c(n1)CN(C(=O)NCc1ccc(Cl)c(Cl)c1)CC2 [Compound I-90, (S)—N-(3,4-dichlorobenzyl)-2-(1-hydroxypropan-2-ylamino)-5,6-dihydropyrido[3,4-d]pyrimidine-7(8H)-carboxamide]	103
2.6	CS(=O)(=O)CC[C@@H](NC(=O)N1CCc2cnc(NC3CCOCC3)nc2C1)c1ccc(Cl)c(Cl)c1 [Compound I-105, (R)—N-(1-(3,4-dichlorophenyl)-3-(methylsulfonyl)propyl)-2-(tetrahydro-2H-pyran-4-ylamino)-5,6-dihydropyrido[3,4-d]pyrimidine-7(8H)-carboxamide]	101
1.9	CC(C)Nc1ncc2c(n1)CN(C(=O)N[C@H](CN)c1ccc(F)c(Cl)c1)CC2 [II-7, 2-Isopropylamino-5,8-dihydro-6H-pyrido[3,4-d]pyrimidine-7-carboxylic acid [(S)-2-amino-1-(3-chloro-4-fluoro-phenyl)-ethyl]-amide]	50000
61	Cc1cccc(CCNc2ncc3c(n2)CN(C(=O)N[C@H](CO)c2ccc(F)c(Cl)c2)CC3)n1 [II-10, 2-[2-(6-Methyl-pyridin-2-yl)-ethylamino]-5,8-dihydro-6H-pyrido[3,4-d]pyrimidine-7-carboxylic acid [(S)-1-(3-chloro-4-fluoro-phenyl)-2-hydroxy-ethyl]-amide]	20800

The next lines start with the compound.

SMILES	IC50 [1] [nM]	IC50 [2] [nM]
N#CC[C@@H](NC(=O)N1CCc2cnc(NC3CCOCC3)nc2C1)c1ccc(F)c(Cl)c1 [Compound I-59, (R)—N-(1-(3-chloro-4-fluorophenyl)-2-cyanoethyl)-2-(tetrahydro-2H-pyran-4-ylamino)-5,6-dihydropyrido[3,4-d]pyrimidine-7(8H)-carboxamide]	0.6	85.5
CNC[C@@H](NC(=O)N1CCc2cnc(Nc3ccc(F)cc3)nc2C1)c1ccc(C(F)(F)F)c(F)c1 [Compound I-68, (S)—N-(1-(3-fluoro-4-(trifluoromethyl)phenyl)-2-(methylamino)ethyl)-2-(4-fluorophenylamino)-5,6-dihydropyrido[3,4-d]pyrimidine-7(8H)-carboxamide hydrochloride]	2.3	146
CC1(C)CC[C@@H]([C@@H](NC(=O)N2CCc3cnc(NC4CCOCC4)nc3C2)c2ccc(C(F)(F)F)cc2F)N1 [Compound I-86, N—((S)—((S)-5,5-dimethylpyrrolidin-2-yl)(2-fluoro-4-(trifluoromethyl)phenyl)methyl)-2-(tetrahydro-2H-pyran-4-ylamino)-5,6-dihydropyrido[3,4-d]pyrimidine-7(8H)-carboxamide]	148	3600
CC(=O)N1CCC[C@H]1[C@@H](NC(=O)N1CCc2cnc(NC(C)C)nc2C1)c1ccc(Cl)c(F)c1 [Compound I-87, N—((S)—((S)-1-acetylpyrrolidin-2-yl)(4-chloro-3-fluorophenyl)methyl)-2-(isopropylamino)-5,6-dihydropyrido[3,4-d]pyrimidine-7(8H)-carboxamide]	195	5100
CC(C)Nc1ncc2c(n1)CN(C(=O)NC1(c3ccc(Cl)c(Cl)c3)CCNCC1)CC2 [Compound I-93, N-(4-(3,4-dichlorophenyl)piperidin-4-yl)-2-(isopropylamino)-5,6-dihydropyrido[3,4-d]pyrimidine-7(8H)-carboxamide]	3.8	6200
CC(NC(=O)N1CCc2cnc(NC3CCOCC3)nc2C1)c1ccc2cc[nH]c2c1 (centres unmarked) [Compound I-107, N-(1-(1H-indol-6-yl)ethyl)-2-(tetrahydro-2H-pyran-4-ylamino)-5,6-dihydropyrido[3,4-d]pyrimidine-7(8H)-carboxamide]	2.7	30
C[C@@H](CO)Nc1ncc2c(n1)CN(C(=O)NCc1cnc(C(F)(F)F)nc1)CC2 [Compound I-109, 2-((S)-2-Hydroxy-1-methyl-ethylamino)-5,8-dihydro-6H-pyrido[3,4-d]pyrimidine-7-carboxylic acid (2-trifluoromethyl-pyrimidin-5-ylmethyl)-amide]	92.7	3300
CC(C)Nc1ncc2c(n1)CN(C(=O)N[C@H](CCN)c1ccc(C(F)(F)F)cc1)CC2 [Compound I-119, (R)—N-(3-amino-1-(4-(trifluoromethyl)phenyl)propyl)-2-(isopropylamino)-5,6-dihydropyrido[3,4-d]pyrimidine-7(8H)-carboxamide]	1.8	694
O=C(N1CCc2cnc(NC3CCOCC3)nc2C1)N1CCC[C@H]1c1ccccc1 [Compound I-130, (S)-(2-phenylpyrrolidin-1-yl)(2-(tetrahydro-2H-pyran-4-ylamino)-5,6-dihydropyrido[3,4-d]pyrimidin-7(8H)-yl)methanone]	123	10000
O=C(N1CCc2cnc(NC3CCOCC3)nc2C1)N1CCCC1c1ccc(F)cc1 (centres unmarked) [Compound I-134, (2-(4-fluorophenyl)pyrrolidin-1-yl)(2-(tetrahydro-2H-pyran-4-ylamino)-5,6-dihydropyrido[3,4-d]pyrimidin-7(8H)-yl)methanone]	20.4	1200
CC(C)Nc1ncc2c(n1)CN(C(=O)CCc1ccc(Cl)cc1Cl)CC2 [II-24, 3-(2,4-Dichloro-phenyl)-1-(2-isopropylamino-5,8-dihydro-6H-pyrido[3,4-d]pyrimidin-7-yl)-propan-1-one]	244	50000
